Test results: patent US5604263A, “Treating osteoporosis with humulones” (Hoechst Japan Limited, priority 1994, dated 1997)
Where two headings read alike, the source gives them in different places.

Test system: bone resorption (pit formation) by bone cell containing osteoclasts
Test: Pit formation assay (bone resorption inhibiting activity; absorption cavities on ivory pieces)
Assay type: cell-based, ICR mice
Conditions: for No. of pits (Mean ± SD): control 328.0 ± 51.0; for IC50 / inhibition at 10 µM / inhibition at 1 µM / inhibition at 0.1 µM / inhibition at 0.01 µM / inhibition at 0.001 µM / inhibition at 0.0001 µM / inhibition at 10 pM: Mus musculus, Osteoclast; for IC50: read-out: 50% inhibitory (ID50) value
Description: From 10 to 11-day old ICR mice (purchased from Charles River Inc.) were extracted femur and shank, which were then chopped using scissors in a-MEM medium (purchased from Flow Laboratories Inc.) containing 5% FBS (purchased from Irving Scientific Inc.), 100 U/ml penicillin and 100 μg/ml streptomycin. And further, the resulting supernatant was recovered by pipetting, washed with the medium and then suspended in 5% FBS, a-MEM medium to form bone cell containing osteoclasts. The bone cell suspension thus prepared was incubated in the medium containing rat parathyroid hormone for one week. After completion of the incubation, the cells were recovered using 0.05% trypsin EDTA-PBS and applied to pit formation assay.
An ivory piece was cut to a thickness of 150 μm using a precision low speed cutter (purchased from Buehler GmbH) and then round pieces with a diameter of 6 mm were cut out using a one-hole punch. These ivory pieces were immersed in 70% ethanol, subjected to sonication twice for each 5 minutes and then washed three times with sterile PBS and twice with the medium. These ivory pieces were placed in a 96-well culture plate (purchased from Falcon Inc.) and 100 µl of the medium containing medicaments at various concentrations was added. Then, 100 μl of the media containing the above prepared bone cells 1×10^5 was added to each well. Incubation was carried out at 37° C. in a 10% CO2 incubator for 2 days. After completion of the incubation, the cell over the ivory piece was removed, absorption cavities were stained with Coomassie Brilliant Blue and the number of the absorption cavities thus formed was counted under microscope.
Organosynthetic humulone was prepared according to Obara, H. et al., Bull. Chem. Soc. Jpn., vol.62, p.3034-3035 (1989). Bone resorption inhibiting activities of the organosynthetic humulone thus obtained and α acids obtained in example 1 were determined by means of the assay as described in (2) of example 2.
Bone resorption inhibiting activities of the native humulone thus obtained in Example 4 and the organosynthetic humulone thus obtained in Example 3 were determined by means of the assay as described in (2) of example 2.

Row | Compound | No. of pits (Mean ± SD) (Example 5, dose 10^-5 M) | No. of pits (Mean ± SD) (Example 5, dose 10^-6 M) | No. of pits (Mean ± SD) (Example 5, dose 10^-7 M) | No. of pits (Mean ± SD) (Example 5, dose 10^-8 M) | No. of pits (Mean ± SD) (Example 5, dose 10^-9 M) | No. of pits (Mean ± SD) (Example 5, dose 10^-10 M) | No. of pits (Mean ± SD) (Example 5, dose 10^-11 M) | IC50 (Example 3, organosynthetic humulone and α acids of example 1) [nM] | IC50 (Example 5) [nM] | inhibition at 10 µM (Example 5, dose 10^-5 M) [%] | inhibition at 1 µM (Example 5, dose 10^-6 M) [%] | inhibition at 0.1 µM (Example 5, dose 10^-7 M) [%] | inhibition at 0.01 µM (Example 5, dose 10^-8 M) [%] | inhibition at 0.001 µM (Example 5, dose 10^-9 M) [%] | inhibition at 0.0001 µM (Example 5, dose 10^-10 M) [%] | inhibition at 10 pM (Example 5, dose 10^-11 M) [%]
1 | CC(C)=CCC1C(=O)C(C(=O)CC(C)C)=C(O)C(O)(CC=C(C)C)C1=O (stereo not shown) [Organosynthetic humulone, humulone] | 6.8 ± 5.3 | 33.7 ± 20.2 | 70.7 ± 9.3 | 217.0 ± 89.1 | 221.8 ± 88.3 | 221.3 ± 54.1 | 281.3 ± 38.1 | 130 | 26 | 97.9 | 89.7 | 78.4 | 33.8 | 32.4 | 32.5 | 14.2
2 | CC(C)=CCC1=C(O)C(C(=O)CC(C)C)=C(O)C(O)(CC=C(C)C)C1=O (single isomer, unassigned) [Native humulone, humulone] | 0.3 ± 0.5 | 6.5 ± 3.8 | 34.5 ± 7.4 | 128.5 ± 23.1 | 251.5 ± 135.4 | 274.3 ± 54.9 | 274.3 ± 91.6 |  | 5.9 | 99.9 | 98 | 89.5 | 60.8 | 23.3 | 16.4 | 16.4
